Patent US12428406B2 (PMV Pharmaceuticals, Inc., priority 2019, dated 2025)

Biological target: T1, p53 Y220C (Homo sapiens, UniProt P04637, Y220C)
T1 construct: The recombinant protein was a truncation mutant containing only amino acids 94-312 of p53; made in house; host or cells: E. coli
Assay: In vitro DNA binding activity assay (HTRF / TR-FRET): stabilization of p53 Y220C and increase of its DNA binding activity
Type: biochemical
Conditions: recombinant His-tagged p53 Y220C DNA binding domain (aa 94-312), biotin-labeled consensus DNA, incubated at 27° C. or 29° C. for 60 min
Procedure: The ability of a compound of the invention to stabilize p53 Y220C and increase the DNA binding activity of p53 Y220C was measured by a homogeneous time-resolved fluorescence (HTRF) assay. Recombinant His-tagged p53 Y220C used in the HTRF assay was expressed in the bacterium E. coli.
The binding of the recombinant His-tagged p53 Y220C protein and the biotin-labeled consensus DNA was measured using fluorescence resonance energy transfer (FRET). For the FRET assay, the binding between the p53 mutant and the DNA sequence was measured by detecting the fluorescence of the interaction between an anti-His antibody conjugated to allophycocyanin (APC) and streptavidin conjugated to europium to detect the biotin-labeled DNA.
The test compounds were prepared as 4.5 mM stock solutions in dimethyl sulfoxide (DMSO). The compounds of the disclosure were used to test the stabilization of p53 Y220C and increase in DNA binding activity of p53 Y220C. The stock solutions were then serially diluted 3-fold in DMSO, and 1.2 μL of the diluted solutions was added to each well of a 384-well polypropylene black plate.
The test and control samples were spun at 1200 rpm for 1 minute and incubated at room temperature for 15 minutes. […] The plates were spun at 1200 rpm for 1 minute and incubated at room temperature for 20 minutes. The assay signals were monitored by reading excitation at 340 nm, and emission fluorescence at 615 nm and 665 nm on a plate reader.
The percentage of activation of protein DNA binding in the presence of a compound of the invention compared to the absence of the compound was denoted by a SC150 value, which indicated the concentration of the compound required to increase the DNA binding activity by 50%. The SC150 values were calculated using either Prism™ or ActivityBase™.

T1 sequence (P04637 94-312, change not shown): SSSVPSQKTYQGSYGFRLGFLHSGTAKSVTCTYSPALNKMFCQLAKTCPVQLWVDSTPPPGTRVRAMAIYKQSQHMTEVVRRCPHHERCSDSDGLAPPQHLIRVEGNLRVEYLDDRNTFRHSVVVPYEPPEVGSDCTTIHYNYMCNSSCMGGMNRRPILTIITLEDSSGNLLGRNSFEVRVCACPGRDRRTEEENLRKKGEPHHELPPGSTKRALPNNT

Row | SC150 (concentration of the compound required to increase the DNA binding activity by 50%) | SMILES
1 | + (+ = 0 μM ≤ SC150 < 0.05 μM) | COc1cc(S(C)(=O)=O)ccc1NCC#Cc1cc2c(N[C@H]3CC[C@H](N4CC5(CCOCC5)C4)CC3)cccc2n1CC(F)(F)F [Compound 294A, 2-{3-[(4-methane-sulfonyl-2-methoxy-phenyl)amino]prop-1-yn-1-yl}-N-[(1R,4R)-4-{7-oxa-2-azaspiro[3.5]nonan-2-yl}cyclo-hexyl]-1-(2,2,2-trifluoro-ethyl)-1H-indol-4-amine]
2 | + (+ = 0 μM ≤ SC150 < 0.05 μM) | COCC(CN1CCC(Nc2cccc3c2cc(C#CCNc2ccc(S(C)(=O)=O)cc2OC)n3CC(F)(F)F)CC1)OC(C)=O (stereo not shown) [Compound 593A, 1-{4-[(2-{3-[(4-methanesulfonyl-2-methoxyphenyl)amino]prop-1-yn-1-yl}-1-(2,2,2-trifluoroethyl)-1H-indol-4-yl)amino]piperidin-1-yl}-3-methoxypropan-2-yl acetate]
3 | + (+ = 0 μM ≤ SC150 < 0.05 μM) | CCN1CCC(Nc2cccc3c2cc(C#CCNc2ccc(S(C)(=O)=O)cc2OCF)n3CC(F)(F)F)CC1 [Compound 534A, N-(1-ethylpiperidin-4-yl)-2-(3-{[2-(fluoromethoxy)-4-methanesulfonylphenyl]amino}prop-1-yn-1-yl)-1-(2,2,2-trifluoroethyl)-1H-indol-4-amine]
4 | + (+ = 0 μM ≤ SC150 < 0.05 μM) | CCN1CC[C@H](Nc2cccc3c2cc(C#CCNc2ccc(S(C)(=O)=O)cc2OC)n3CC(F)(F)F)[C@H](F)C1 (racemic) [Compound 820A, rac-N-[(3R,4S)-1-ethyl-3-fluoropiperidin-4-yl]-2-{3-[(4-methanesulfonyl-2-methoxyphenyl)amino]prop-1-yn-1-yl}-1-(2,2,2-trifluoroethyl)-1H-indol-4-amine]
5 | + (+ = 0 μM ≤ SC150 < 0.05 μM) | COc1cc(S(N)(=O)=O)ccc1NCC#Cc1cc2c(NC3CCN(C[C@H](CO)OC)CC3)cccc2n1CC(F)(F)F [Compound 623A, 4-({3-[4-({1-[(2R)-3-hydroxy-2-methoxypropyl]piperidin-4-yl}amino)-1-(2,2,2-trifluoroethyl)-1H-indol-2-yl]prop-2-yn-1-yl}amino)-3-methoxybenzene-1-sulfonamide]
6 | + (+ = 0 μM ≤ SC150 < 0.05 μM) | COc1cc(S(=O)(=O)NC2CCOCC2)ccc1NCC#Cc1cc2c(N[C@H]3CC[C@@H](N(C)C)CC3)cccc2n1CC(F)(F)F [Compound 51A, 3-methoxy-N-(oxan-4-yl)-4-{[3-(4-{[(1S,4S)-4-(dimethylamino)cyclohexyl]amino}-1-(2,2,2-trifluoroethyl)-1H-indol-2-yl)prop-2-yn-1-yl]amino}benzene-1-sulfonamide]
7 | + (+ = 0 μM ≤ SC150 < 0.05 μM) | COc1cc(S(C)(=O)=O)ccc1NCC#Cc1cc2c(NC3CCN(C[C@@H]4COC(=O)O4)CC3)cccc2n1CC(F)(F)F [Compound 563A, (4R)-4-({4-[(2-{3-[(4-methanesulfonyl-2-methoxyphenyl)amino]prop-1-yn-1-yl}-1-(2,2,2-trifluoroethyl)-1H-indol-4-yl)amino]piperidin-1-yl}methyl)-1,3-dioxolan-2-one]
8 | + (+ = 0 μM ≤ SC150 < 0.05 μM) | COc1cc(S(C)(=O)=O)ccc1NCC#Cc1cc2c(NC(=O)N[C@H]3CC[C@H](N(C)C)CC3)cccc2n1CC(F)(F)F [Compound 12A, 3-(2-{3-[(4-methanesulfonyl-2-methoxyphenyl)amino]prop-1-yn-1-yl}-1-(2,2,2-trifluoroethyl)-1H-indol-4-yl)-1-[(1R,4R)-4-(dimethylamino)cyclohexyl]urea]
9 | + (+ = 0 μM ≤ SC150 < 0.05 μM) | COc1cc(S(=O)(=O)N(C)C)ccc1NCC#Cc1cc2c(NC3CCN(C(=O)CO)CC3)cccc2n1CC(F)(F)F [Compound 730A]
10 | + (+ = 0 μM ≤ SC150 < 0.05 μM) | COC[C@@H](O)CN1CCC(Nc2cccc3c2cc(C#CCNc2ccc(S(C)(=O)=O)cc2OCF)n3CC(F)(F)F)CC1 [Compound 666A, (2S)-1-(4-{[2-(3-{[2-(fluoromethoxy)-4-methanesulfonylphenyl]amino}prop-1-yn-1-yl)-1-(2,2,2-trifluoroethyl)-1H-indol-4-yl]amino}piperidin-1-yl)-3-methoxypropan-2-ol]
11 | + (+ = 0 μM ≤ SC150 < 0.05 μM) | CN1CCC(Nc2cccc3c2cc(C#CCNc2ccc(S(C)(=O)=O)cc2O)n3CC(F)(F)F)CC1 [Compound 486A, 5-methanesulfonyl-2-[(3-{4-[(1-methylpiperidin-4-yl)amino]-1-(2,2,2-trifluoroethyl)-1H-indol-2-yl}prop-2-yn-1-yl)amino]phenol]
12 | + (+ = 0 μM ≤ SC150 < 0.05 μM) | CNC(=O)c1cc(OC)c(NCC#Cc2cc3c(N[C@H]4CC[C@H](N5CC6(CCOCC6)C5)CC4)cccc3n2CC(F)(F)F)cc1F [Compound 335A, 2-fluoro-5-methoxy-N-methyl-4-{[3-(4-{[(1R,4R)-4-{7-oxa-2-azaspiro[3.5]nonan-2-yl}cyclohexyl]amino}-1-(2,2,2-trifluoroethyl)-1H-indol-2-yl)prop-2-yn-1-yl]amino}benzamide]
13 | + (+ = 0 μM ≤ SC150 < 0.05 μM) | COc1cc(S(=O)(=O)N2CCN(C)CC2)ccc1NCC#Cc1cc2c(NC3CCOCC3)cccc2n1CC(F)(F)F [Compound 1011A, 2-[3-({2-methoxy-4-[(4-methylpiperazin-1-yl)sulfonyl]phenyl}amino)prop-1-yn-1-yl]-N-(oxan-4-yl)-1-(2,2,2-trifluoroethyl)-1H-indol-4-amine]

Second part, the compound before the results:

Row | SMILES | SC150 (concentration of the compound required to increase the DNA binding activity by 50%)
14 | COC(=O)CC[C@H](NC(=O)c1ccc(NCC#Cc2cc3c(N[C@@H]4CCN(C)C[C@@H]4F)cccc3n2CC(F)(F)F)c(OC)c1)C(=O)OC [Compound 932A, 1,5-dimethyl (2S)-2-[(4-{[3-(4-{[(3S,4R)-3-fluoro-1-methylpiperidin-4-yl]amino}-1-(2,2,2-trifluoroethyl)-1H-indol-2-yl)prop-2-yn-1-yl]amino}-3-methoxyphenyl)formamido]pentanedioate] | + (+ = 0 μM ≤ SC150 < 0.05 μM)
15 | COc1cc(C(=O)O)ccc1NCC#Cc1cc2c(N[C@@H]3CCNC[C@@H]3F)cccc2n1CC(F)(F)F [Compound 858A] | + (+ = 0 μM ≤ SC150 < 0.05 μM)
16 | COCC(O)CN1CCC(Nc2cccc3c2cc(C#CCNc2cc(F)c(S(C)(=O)=O)cc2OC)n3CC(F)(F)F)CC1 (stereo not shown) [Compound 677A, 1-{4-[(2-{3-[(5-fluoro-4-methanesulfonyl-2-methoxyphenyl)amino]prop-1-yn-1-yl}-1-(2,2,2-trifluoroethyl)-1H-indol-4-yl)amino]piperidin-1-yl}-3-methoxypropan-2-ol] | + (+ = 0 μM ≤ SC150 < 0.05 μM)
17 | CNC(=O)c1ccc(NCC#Cc2cc3c(N[C@H]4CCNC[C@H]4F)cccc3n2CC(F)(F)F)c(OC)c1 [Compound 851A] | + (+ = 0 μM ≤ SC150 < 0.05 μM)
18 | CNC(=O)c1ccc(NCC#Cc2cc3c(N[C@H]4CCN(C)C[C@H]4F)cccc3n2CC(F)(F)F)c(OC)c1 (racemic) [Compound 783A, 4-[3-[4-[[(3R,4S)-3-fluoro-1-methyl-4-piperidyl]amino]-1-(2,2,2-trifluoroethyl)indol-2-yl]prop-2-ynylamino]-3-methoxy-N-methyl-benzamide] | + (+ = 0 μM ≤ SC150 < 0.05 μM)
19 | CNC(=O)c1ccc(NCC#Cc2cc3c(N[C@H]4CC[C@@](C)(O)CC4)cccc3n2CC(F)(F)F)c(OC)c1 [Compound 32A, 3-methoxy-N-methyl-4-{[3-(4-{[(1S,4S)-4-hydroxy-4-methylcyclohexyl]amino}-1-(2,2,2-trifluoroethyl)-1H-indol-2-yl)prop-2-yn-1-yl]amino}benzamide] | + (+ = 0 μM ≤ SC150 < 0.05 μM)
20 | COc1cc(S(C)(=O)=O)ccc1NCC#Cc1cc2c(NC3CCN(C)CC3)cc(F)cc2n1CC(F)(F)F [Compound 475A, 6-fluoro-2-{3-[(4-methanesulfonyl-2-methoxyphenyl)amino]prop-1-yn-1-yl}-N-(1-methylpiperidin-4-yl)-1-(2,2,2-trifluoroethyl)-1H-indol-4-amine] | +++ (+++ = 0.1 μM ≤ SC150 < 0.2 μM)
21 | COc1cc(C(=O)O)ccc1NCC#Cc1cc2c(N[C@@H]3CCN(CC(N)=O)C[C@@H]3F)cccc2n1CC(F)(F)F [Compound 926A] | + (+ = 0 μM ≤ SC150 < 0.05 μM)
22 | COCC(O)CN1CCC(Nc2cccc3c2cc(C#CCNc2c(F)cc(S(C)(=O)=O)cc2OC)n3CC(F)(F)F)CC1 (stereo not shown) [Compound 714A] | ++++ (++++ = 0.2 μM ≤ SC150 < 1 μM)
